# In PubChem BioAssay AID1259407 (Chemical Carcinogenesis Research Information System (CCRIS), 2018):
# Calls of active or inactive are those of the source. How the calls were made is not given here.
# System: CCRIS mutagenicity, Ames/micronucleus/aberration tests
# Test: CCRIS mutagenicity studies
# [1] = Test System: AMES SALMONELLA TYPHIMURIUM, Strain/Indicator: TA97, Metabolic Activation: NONE, Method: PREINCUBATION
# [2] = Test System: AMES SALMONELLA TYPHIMURIUM, Strain/Indicator: TA1537, Metabolic Activation: NONE, Method: PREINCUBATION
# [3] = Test System: AMES SALMONELLA TYPHIMURIUM, Strain/Indicator: TA100, Metabolic Activation: NONE, Method: STANDARD PLATE
smiles,measurement,setting,value
C=C(C)C#N,mutagenic call,"Test System: AMES SALMONELLA TYPHIMURIUM, Strain/Indicator: TA97, Metabolic Activation: HAMSTER, LIVER, S-9, AROCLOR 1254 (10%), Method: PREINCUBATION",inactive; negative
same,mutagenic call,"Test System: AMES SALMONELLA TYPHIMURIUM, Strain/Indicator: TA97, Metabolic Activation: HAMSTER, LIVER, S-9, AROCLOR 1254 (30%), Method: PREINCUBATION",inactive; negative
same,mutagenic call,[1],inactive; negative
same,mutagenic call,"Test System: AMES SALMONELLA TYPHIMURIUM, Strain/Indicator: TA97, Metabolic Activation: RAT, LIVER, S-9, AROCLOR 1254 (10 OR 30%), Method: PREINCUBATION",inactive; negative
same,mutagenic call,"Test System: AMES SALMONELLA TYPHIMURIUM, Strain/Indicator: TA98, Metabolic Activation: HAMSTER, LIVER, S-9, AROCLOR 1254 (10%), Method: PREINCUBATION",inactive; negative
same,mutagenic call,"Test System: AMES SALMONELLA TYPHIMURIUM, Strain/Indicator: TA98, Metabolic Activation: HAMSTER, LIVER, S-9, AROCLOR 1254 (30%), Method: PREINCUBATION",inactive; negative
same,mutagenic call,"Test System: AMES SALMONELLA TYPHIMURIUM, Strain/Indicator: TA98, Metabolic Activation: NONE, Method: PREINCUBATION",inactive; negative
same,mutagenic call,"Test System: AMES SALMONELLA TYPHIMURIUM, Strain/Indicator: TA98, Metabolic Activation: RAT, LIVER, S-9, AROCLOR 1254 (10%), Method: PREINCUBATION",inactive; negative
same,mutagenic call,"Test System: AMES SALMONELLA TYPHIMURIUM, Strain/Indicator: TA100, Metabolic Activation: HAMSTER, LIVER, S-9, AROCLOR 1254 (10%), Method: PREINCUBATION",inactive; negative
same,mutagenic call,"Test System: AMES SALMONELLA TYPHIMURIUM, Strain/Indicator: TA100, Metabolic Activation: HAMSTER, LIVER, S-9, AROCLOR 1254 (30%), Method: PREINCUBATION",inactive; negative
same,mutagenic call,"Test System: AMES SALMONELLA TYPHIMURIUM, Strain/Indicator: TA100, Metabolic Activation: NONE, Method: PREINCUBATION",inactive; negative
same,mutagenic call,"Test System: AMES SALMONELLA TYPHIMURIUM, Strain/Indicator: TA100, Metabolic Activation: RAT, LIVER, S-9, AROCLOR 1254 (10 OR 30%), Method: PREINCUBATION",inactive; negative
same,mutagenic call,"Test System: AMES SALMONELLA TYPHIMURIUM, Strain/Indicator: TA1535, Metabolic Activation: HAMSTER, LIVER, S-9, AROCLOR 1254 (10%), Method: PREINCUBATION",inactive; negative
same,mutagenic call,"Test System: AMES SALMONELLA TYPHIMURIUM, Strain/Indicator: TA1535, Metabolic Activation: HAMSTER, LIVER, S-9, AROCLOR 1254 (30%), Method: PREINCUBATION",inactive; negative
same,mutagenic call,"Test System: AMES SALMONELLA TYPHIMURIUM, Strain/Indicator: TA1535, Metabolic Activation: NONE, Method: PREINCUBATION",inactive; negative
same,mutagenic call,"Test System: AMES SALMONELLA TYPHIMURIUM, Strain/Indicator: TA1535, Metabolic Activation: RAT, LIVER, S-9, AROCLOR 1254 (10 OR 30%), Method: PREINCUBATION",inactive; negative
same,mutagenic call,"Test System: AMES SALMONELLA TYPHIMURIUM, Strain/Indicator: TA1537, Metabolic Activation: HAMSTER, LIVER, S-9, AROCLOR 1254 (10%), Method: PREINCUBATION",inactive; negative
same,mutagenic call,"Test System: AMES SALMONELLA TYPHIMURIUM, Strain/Indicator: TA1537, Metabolic Activation: HAMSTER, LIVER, S-9, AROCLOR 1254 (30%), Method: PREINCUBATION",inactive; negative
same,mutagenic call,[2],inactive; negative
same,mutagenic call,"Test System: AMES SALMONELLA TYPHIMURIUM, Strain/Indicator: TA1537, Metabolic Activation: RAT, LIVER, S-9, AROCLOR 1254 (10 OR 30%), Method: PREINCUBATION",inactive; negative
same,mutagenic call,"Test System: UDS HUMAN HEPATOMA HEPG2 CELLS, Strain/Indicator: THY INCORP, Metabolic Activation: NONE, Method: LIQUID SCINTILLATION COUNTING",active; positive
CC[C@H](C)OS(C)(=O)=O,mutagenic call,[3],active; positive
same,mutagenic call,"Test System: AMES SALMONELLA TYPHIMURIUM, Strain/Indicator: TA1535, Metabolic Activation: NONE, Method: STANDARD PLATE",active; positive
same,mutagenic call,"Test System: CHINESE HAMSTER V-79, Strain/Indicator: V-79/6-THIOGUANINE, Metabolic Activation: NONE",active; positive
COc1ccc(CCl)cc1,mutagenic call,[3],inactive; negative
O=CN(O)c1ccc(Oc2ccc(Cl)cc2Cl)cc1,mutagenic call,[3],inactive; negative
same,mutagenic call,"Test System: AMES SALMONELLA TYPHIMURIUM, Strain/Indicator: TA100, Metabolic Activation: RAT, LIVER, S-9, KANECLOR 500, Method: STANDARD PLATE",active; positive
Oc1cc(Cl)c(O)cc1Cl,mutagenic call,"Test System: AMES SALMONELLA TYPHIMURIUM, Strain/Indicator: TA98, Metabolic Activation: NONE",inactive; negative
same,mutagenic call,"Test System: AMES SALMONELLA TYPHIMURIUM, Strain/Indicator: TA98, Metabolic Activation: RAT, LIVER, S-9, AROCLOR 1254",inactive; negative
same,mutagenic call,"Test System: AMES SALMONELLA TYPHIMURIUM, Strain/Indicator: TA100, Metabolic Activation: NONE",inactive; negative
same,mutagenic call,"Test System: AMES SALMONELLA TYPHIMURIUM, Strain/Indicator: TA100, Metabolic Activation: RAT, LIVER, S-9, AROCLOR 1254",inactive; negative
same,mutagenic call,"Test System: AMES SALMONELLA TYPHIMURIUM, Strain/Indicator: TA102, Metabolic Activation: NONE",inactive; negative
same,mutagenic call,"Test System: AMES SALMONELLA TYPHIMURIUM, Strain/Indicator: TA102, Metabolic Activation: RAT, LIVER, S-9, AROCLOR 1254",inactive; negative
same,mutagenic call,"Test System: AMES SALMONELLA TYPHIMURIUM, Strain/Indicator: TA104, Metabolic Activation: NONE",inactive; negative
same,mutagenic call,"Test System: AMES SALMONELLA TYPHIMURIUM, Strain/Indicator: TA104, Metabolic Activation: RAT, LIVER, S-9, AROCLOR 1254",inactive; negative
ClCc1cccc2c1-c1cccc3cccc-2c13,mutagenic call,"Test System: AMES SALMONELLA TYPHIMURIUM, Strain/Indicator: TA98, Metabolic Activation: NONE, Method: STANDARD PLATE",active; positive
same,mutagenic call,[3],active; positive
O=CC(O)C(O)C(O)C(O)CO (configuration not stated),mutagenic call,[1],inactive; negative
same,mutagenic call,"Test System: AMES SALMONELLA TYPHIMURIUM, Strain/Indicator: TA97, Metabolic Activation: S-9, Method: PREINCUBATION",inactive; negative
same,mutagenic call,"Test System: AMES SALMONELLA TYPHIMURIUM, Strain/Indicator: TA102, Metabolic Activation: NONE, Method: PREINCUBATION",inactive; negative
same,mutagenic call,"Test System: AMES SALMONELLA TYPHIMURIUM, Strain/Indicator: TA102, Metabolic Activation: S-9, Method: PREINCUBATION",inactive; negative
Nc1c2ccccc2nc2ccc(I)cc12,mutagenic call,[2],active; positive
